Legend:
[1] = molecular target: T1, Hen egg white lysozyme (HEWL) (Gallus gallus, UniProt P00698); assay: intrinsic Trp fluorescence quenching, modified Stern-Volmer; assay type: binding; conditions: pH 7.4, 20 mM sodium phosphate, 25°C, 5 μM HEWL, excitation 295 nm, double-log
T1 construct: gene LYZ; native egg-white protein, commercial (Sigma), dialysed; mature chain, 129 residues, monomer, four disulfides
Text: intrinsic Trp fluorescence quenching, modified Stern-Volmer on Hen egg white lysozyme (HEWL)

[2] = molecular target: T1, Hen egg white lysozyme (HEWL); assay: heat-induced aggregation, turbidity at […] nm, single exponential fit; assay type: biochemical; conditions: pH 7.4, 65°C, 120 h, 10 μM HEWL, stirring; inhibition of aggregation

T1 sequence (P00698 19-147): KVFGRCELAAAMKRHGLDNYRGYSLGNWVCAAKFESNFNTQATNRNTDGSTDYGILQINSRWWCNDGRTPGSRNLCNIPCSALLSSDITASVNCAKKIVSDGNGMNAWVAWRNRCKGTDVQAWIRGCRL

binding constant ([1]; n = 1.2)	Λ [2]	binding constant ([1]; n = 1.1, unreliable (text b59 prints another value))	Compound
(2.45±0.19)×10^4 M^-1	1500 M⁻¹		NC(=O)c1cnccn1 [pyrazinamide]
	470 M⁻¹	(2.70±0.18)×10^3 M^-1	N[C@@H]1CONC1=O [D-cycloserine, D-4-amino-3-isoxazolidone]

Source: publication PMC4552381, “Unraveling Comparative Anti-Amyloidogenic Behavior of Pyrazinamide and D-Cycloserine: A Mechanistic Biophysical Insight” (PLoS ONE, 2015)
